The record followed here is patent US8134015B2, “Compound inhibiting in vivo phosphorous transport and medicine containing the same” (Kyowa Hakko Kirin Co., Ltd., priority 2003, dated 2012).

Some results are limits rather than exact numbers.

The target in one assay is T1, rat NaPi-2b (Rattus norvegicus, UniProt Q9JJ09).
T1 construct: expressed in transfected cells; host or cells: Xenopus oocytes injected with cRNA
T1 sequence (Q9JJ09 1-695): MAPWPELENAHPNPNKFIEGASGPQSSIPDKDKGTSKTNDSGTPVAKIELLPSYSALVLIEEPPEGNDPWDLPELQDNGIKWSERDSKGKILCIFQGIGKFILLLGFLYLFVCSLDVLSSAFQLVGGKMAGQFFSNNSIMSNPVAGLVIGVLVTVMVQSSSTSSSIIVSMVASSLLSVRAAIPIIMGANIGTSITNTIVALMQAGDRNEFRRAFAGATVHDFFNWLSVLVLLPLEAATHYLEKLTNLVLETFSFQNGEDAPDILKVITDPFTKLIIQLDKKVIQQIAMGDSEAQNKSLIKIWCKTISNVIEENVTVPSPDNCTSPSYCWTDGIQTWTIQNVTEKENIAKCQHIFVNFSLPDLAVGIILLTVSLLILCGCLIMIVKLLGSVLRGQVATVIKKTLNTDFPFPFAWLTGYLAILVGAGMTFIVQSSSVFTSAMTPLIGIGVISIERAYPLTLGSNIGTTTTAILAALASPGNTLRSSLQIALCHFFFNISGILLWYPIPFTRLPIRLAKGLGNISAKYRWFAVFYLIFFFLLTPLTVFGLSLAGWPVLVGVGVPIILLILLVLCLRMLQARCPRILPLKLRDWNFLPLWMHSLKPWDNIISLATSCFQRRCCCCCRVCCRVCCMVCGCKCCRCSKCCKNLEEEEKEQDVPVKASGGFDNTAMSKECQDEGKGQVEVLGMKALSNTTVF
Kind of assay: Sodium-dependent phosphate uptake of Xenopus oocytes which expressed NaPi-2b (32P). It counts as cell-based. As to conditions: Xenopus oocytes expressing rat NaPi-2b, 32P radioactive phosphorus; read-out: IC50 (phosphate uptake inhibitory activity). An outline of the steps:
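Oocytes injected with rat NaPi-2b cRNA, cultured 2 d, then 32P uptake measured with compound. Values: % inhibition at 300 and 100 μM, both from one inhibition curve.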
Consider `CCOCCN(CCOCC)Cc1ccc(C(=O)Nc2ccc(Br)cc2C(=O)N/N=C/c2cccc(F)c2)cc1` [Compound 737, 4-{[Bis-(2-ethoxy-ethyl)-amino]-methyl}-N-[4-bromo-2-(3-fluoro-benzylidene-hydrazinocarbonyl)-phenyl]-benzamide], for which the IC50 amounted to 4.24 µM.
On the same count and under the same terms, under `Cc1ccc(/C=N/NC(=O)c2c(C)csc2NC(=O)c2cccc(CSCCCO)c2)cc1` [Compound 558, 3-(3-Hydroxy-propylsulfanylmethyl)-N-[4-methyl-3-(4-methyl-benzylidene-hydrazinocarbonyl)-thiophen-2-yl]-benzamide] stands 1.07 µM; under `CCN(CC)CCN(C)Cc1cccc(C(=O)Nc2ccc(OCCCCF)cc2C(=O)N/N=C/c2ccc(OC)cc2)c1` [Compound 1061, 3-{[(2-Diethylamino-ethyl)-methyl-amino]-methyl}-N-[4-(4-fluoro-butoxy)-2-(4-methoxy-benzylidene-hydrazinocarbonyl)-phenyl]-benzamide], 1.99 µM.
Consider `COc1ccc(C(=O)Nc2ccccc2C(=O)N/N=C/c2cc(C(F)(F)F)ccc2F)cc1OC` [Compound 44, N-[2-(2-Fluoro-5-trifluoromethyl-benzylidene-hydrazinocarbonyl)-phenyl]-3,4-dimethoxy-benzamide], for which the IC50 came to 4.71 µM.
On the same count and under the same terms, under `COc1ccc(C(=O)Nc2ccc(Br)cc2C(=O)N/N=C/c2cc(C)c(C)o2)cc1OC` [Compound 202, N-[4-Bromo-2-(4,5-dimethyl-furan-2-ylmethylene-hydrazinocarbonyl)-phenyl]-3,4-dimethoxy-benzamide] stands 3.14 µM.
For the compound `CCN(CC)CCN(C)Cc1cccc(C(=O)Nc2ccc(OCC3CCCCC3)cc2C(=O)N/N=C/c2cccc(F)c2)c1` [Compound 1046, N-[4-Cyclohexylmethoxy-2-(3-fluoro-benzylidene-hydrazinocarbonyl)-phenyl]-3-{[(2-diethylamino-ethyl)-methyl-amino]-methyl}-benzamide], the IC50 is < 1 µM.
On the same count and under the same terms, the result for `CCN(CC)CCNCc1ccc(C(=O)Nc2ccc(Br)cc2C(=O)N/N=C/c2ccc(OC)cc2)cc1` [Compound 298, N-[4-Bromo-2-(4-methoxy-benzylidene-hydrazinocarbonyl)-phenyl]-4-[(2-diethylamino-ethylamino)-methyl]-benzamide] reads 9.22 µM; that for `CCN(CC)CC(O)COc1ccc(NC(=O)c2cccc(CN(CC(C)O)CC(C)O)c2)c(C(=O)N/N=C/c2ccc(Cl)c(C(F)(F)F)c2)c1` (stereo not shown) [Compound 952, 3-{[Bis-(2-hydroxy-propyl)-amino]-methyl}-N-[2-(4-chloro-3-trifluoromethyl-benzylidene-hydrazinocarbonyl)-4-(3-diethylamino-2-hydroxy-propoxy)-phenyl]-benzamide], 19.2 µM.
As for `COc1ccc(C(=O)Nc2ccc(Br)cc2C(=O)N/N=C/c2cccc(Cl)c2)cc1OC` [Compound 59, N-[4-Bromo-2-(3-chloro-benzylidene-hydrazinocarbonyl)-phenyl]-3,4-dimethoxy-benzamide], the IC50 worked out at 1.22 µM.
Same read-out and setting: the result for `COc1ccc(C(=O)Nc2ccccc2C(=O)N/N=C/c2ccc(C)c(C)c2)cc1` [Compound 94, N-[2-(3,4-Dimethyl-benzylidene-hydrazinocarbonyl)-phenyl]-4-methoxy-benzamide] reads 5.63 µM.
On the same count and under the same terms, under `CCc1ccc(C(=O)Nc2ccc(Br)cc2C(=O)N/N=C/c2cccc(C)c2)cc1` [Compound 180, N-[4-Bromo-2-(3-methyl-benzylidene-hydrazinocarbonyl)-phenyl]-4-ethyl-benzamide] stands < 3 µM.
Take `O=C(Nc1ccc(Br)cc1C(=O)N/N=C/c1cccc(F)c1)c1cccc(C[S+]([O-])c2nc[nH]n2)c1` (stereo not shown) [Compound 341, N-[4-Bromo-2-(3-fluoro-benzylidene-hydrazinocarbonyl)-phenyl]-3-(1H-[1,2,4]triazole-3-sulfinylmethyl)-benzamide]: the IC50 was < 3 µM.
The same measure, in the same setting: the result for `COc1cccc(/C=N/NC(=O)c2cc(Br)ccc2NC(=O)c2ccc(CN3CCC(CCO)CC3)cc2)c1` [Compound 746, N-[4-Bromo-2-(3-methoxy-benzylidene-hydrazinocarbonyl)-phenyl]-4-[4-(2-hydroxy-ethyl)-piperidin-1-ylmethyl]-benzamide] reads 16.8 µM; that for `O=C(Nc1ccccc1C(=O)N/N=C/c1ccc(F)cc1)c1cccc(OC(F)(F)F)c1` [Compound 121], 4.06 µM; that for `CN(Cc1ccc(C(=O)Nc2ccc(Br)cc2C(=O)N/N=C/c2ccc(Cl)c(C(F)(F)F)c2)cc1)CC(O)c1ccc(O)cc1` (stereo not shown) [Compound 726, N-[4-Bromo-2-(4-chloro-3-trifluoromethyl-benzylidene-hydrazinocarbonyl)-phenyl]-4-({[2-hydroxy-2-(4-hydroxy-phenyl)-ethyl]-methyl-amino}-methyl)-benzamide], < 3 µM.
Consider `Cc1ccc(/C=N/NC(=O)c2cc(Br)ccc2NC(=O)c2cccnc2)cc1` [Compound 175, N-[4-Bromo-2-(4-methyl-benzylidene-hydrazinocarbonyl)-phenyl]-nicotinamide], for which the IC50 is 3.57 µM.
For the compound `COc1ccc(/C=N/NC(=O)c2cc(OCCN3CCCCC3)ccc2NC(=O)c2cccc(CSCCO)c2)cc1` [Compound 1045, 3-(2-Hydroxy-ethylsulfanylmethyl)-N-[2-(4-methoxy-benzylidene-hydrazinocarbonyl)-4-(2-piperidin-1-yl-ethoxy)-phenyl]-benzamide], the IC50 stood at 13.1 µM.
Same read-out and setting: under `COc1ccc(/C=N/NC(=O)c2c(C)csc2NC(=O)c2cccc(CSc3nc[nH]n3)c2)cc1` [Compound 556, N-[3-(4-Methoxy-benzylidene-hydrazinocarbonyl)-4-methyl-thiophen-2-yl]-3-(1H-[1,2,4]triazol-3-ylsulfanylmethyl)-benzamide] stands < 3 µM; under `COc1ccc(C(=O)Nc2ccccc2C(=O)N/N=C(\C)c2cccc(F)c2)cc1OC` [Compound 213, N-{2-[1-(3-Fluoro-phenyl)-ethylidene-hydrazinocarbonyl]-phenyl}-3,4-dimethoxy-benzamide], 16.6 µM; under `COc1ccc(C(=O)Nc2ccccc2C(=O)N/N=C/c2ccc(F)cc2)cc1OC` [Compound 16, N-[2-(4-Fluoro-benzylidene-hydrazinocarbonyl)-phenyl]-3,4-dimethoxy-benzamide], 2.3 µM.
Same read-out and setting: the result for `CCN(CCO)Cc1ccc(C(=O)Nc2ccc(Cl)cc2C(=O)N/N=C/c2cccc(F)c2)cc1` [Compound 432, N-[4-Chloro-2-(3-fluoro-benzylidene-hydrazinocarbonyl)-phenyl]-4-{[ethyl-(2-hydroxy-ethyl)-amino]-methyl}-benzamide] reads 22.2 µM; that for `CCN(CC)CCN(C)Cc1cccc(C(=O)Nc2ccc(OCCCCF)cc2C(=O)N/N=C/c2ccc(C)cc2)c1` [Compound 1058, 3-{[(2-Diethylamino-ethyl)-methyl-amino]-methyl}-N-[4-(4-fluoro-butoxy)-2-(4-methyl-benzylidene-hydrazinocarbonyl)-phenyl]-benzamide], 1.07 µM.
Take `Cc1cccc(/C=N/NC(=O)c2cc(Br)ccc2NC(=O)c2ccncc2)c1` [Compound 168, N-[4-Bromo-2-(3-methyl-benzylidene-hydrazinocarbonyl)-phenyl]-isonicotinamide]: the IC50 was 4.84 µM.
As for `COc1ccc(C(=O)Nc2cc(Cl)ccc2C(=O)N/N=C/c2ccc(F)cc2)cc1OC` [Compound 72, N-[5-Chloro-2-(4-fluoro-benzylidene-hydrazinocarbonyl)-phenyl]-3,4-dimethoxy-benzamide], the IC50 is 10.4 µM.

Still in this assay, the particulars now being: phosphate uptake, oocytes expressing rat NaPi-2b; 300 μM, determined from inhibition curve.
`COc1ccc(C(=O)Nc2ccc(Cl)cc2C(=O)N/N=C/c2ccccn2)cc1OC` [Compound 244, N-[4-Chloro-2-(pyridin-2-ylmethylene-hydrazinocarbonyl)-phenyl]-3,4-dimethoxy-benzamide]: the inhibition at 300 µM was 30.7%.
Same read-out and setting: under `CCN(CC)CCN(C)Cc1cccc(C(=O)Nc2c(C)csc2C(=O)N/N=C/c2ccc(OC)cc2)c1` [Compound 530, 3-{[(2-Diethylamino-ethyl)-methyl-amino]-methyl}-N-[2-(4-methoxy-benzylidene-hydrazinocarbonyl)-4-methyl-thiophen-3-yl]-benzamide] stands 38.2%.
On the same count and under the same terms, under `Cc1cccc(/C=N/NC(=O)c2cc(Br)ccc2NC(=O)c2ccc(CN3CCC(CCO)CC3)cc2)c1` [Compound 742, N-[4-Bromo-2-(3-methyl-benzylidene-hydrazinocarbonyl)-phenyl]-4-[4-(2-hydroxy-ethyl)-piperidin-1-ylmethyl]-benzamide] stands 77.6%; under `CN(C)CCn1nnnc1SCc1cccc(C(=O)Nc2ccc(Cl)cc2C(=O)N/N=C/c2ccc(O)cc2)c1` [Compound 471, N-[4-Chloro-2-(4-hydroxy-benzylidene-hydrazinocarbonyl)-phenyl]-3-[1-(2-dimethylamino-ethyl)-1H-tetrazol-5-ylsulfanylmethyl]-benzamide], 51%.

Usually IC50 stands for the concentration needed to halve the response being measured. As a reminder, the inhibition is how much of the control response was suppressed. Read a low inhibition as a weak effect.
